Laboratory results as given in patent US8618114B2 (priority 2008, dated 2013).

Assays:
male mice of SHK line = assay: Novel object recognition test, Scopolamine amnesia model; format: in vivo, mouse; details: Scopolamine 1 mg/kg i.p.; compounds i.p. 60 minutes before training; FIG. 7
Description: 14.1.2. Novel object recognition test. The test was carried out in aged male mice of SHK line. […] A mouse was placed into the central chamber and allowed to explore the maze. The floor was cleaned after each animal. The sequence of chamber entries and duration of visits were registered by the observer. The test was ended after 13 entries into the dead-end chambers. Criterion for entry was a location of all animal's paws inside the chamber at the same time.
During the training the animal was placed in the maze with one equiform bowl in each side chamber. In the course of testing (one hour after training) two opposite standing bowls were replaced by identical flasks, and the animal was allowed to explore the maze. The time spent by the animal in each side chamber was registered during the periods of training and testing. Index of novel object recognition was calculated as the ratio of time spent by the animal in the side chambers with novel objects to the total time spent by it in all side chambers.

male rats = assay: Passive avoidance in the shuttle chamber, Scopolamine amnesia model, rats; format: in vivo, rat; details: compounds injected 60 minutes before the test, read 24 hours after training, FIG. 1-3
Description: (§1) 14.1.1. Passive Avoidance of mice in the Shuttle Chamber. The experiments were carried out in aged male mice of BALB/c line weighing 20-24 g or male rats weighing 200-250 g.
(§2) A shuttle chamber (Ugo Basile, Italy) that consisted of two sections was used. One section was white and lightened, the other one was dark. The sections were connected through a hole which could be overlapped by automatic vertical door. The floor of the dark section was made of transverse metal bars on which DC current impulses could be fed.
(§3) On the first day of testing 30 minutes before training the animals were injected intraperitoneally with Scopolamine which causes disturbance of training (memory loss). The animals of the trial group were additionally administered with one of the tested compounds. The animals of the control group were injected with physiological solution. Each group consisted of 8 animals. The animals were placed in the light section, and latent period of the first entry into the dark chamber was registered. Then vertical door was closed and the animal was punished by 0.6 mA DC current for 3 seconds. After that the animal was taken back to its home cage. […]

rats = assay: Passive avoidance in the shuttle chamber, amnesia caused by MK-801, rats; format: in vivo, rat; details: MK-801 0.1 mg/kg i.p., compounds injected 60 minutes before the test, FIG. 8-10
5-HT6 receptor [1] = biological target: T1, 5-HT6 receptor (Homo sapiens (Human), UniProt P50406); assay: functional assay for serotonin 5-HT6 receptor inhibition (serotonin-induced intracellular cAMP, LANCE cAMP kit, HEK 293 cells); format: cell-based; details: HEK 293 cells with expressed 5-HT6 receptor; reduction of serotonin-induced intracellular cAMP
T1 sequence (P50406 whole entry): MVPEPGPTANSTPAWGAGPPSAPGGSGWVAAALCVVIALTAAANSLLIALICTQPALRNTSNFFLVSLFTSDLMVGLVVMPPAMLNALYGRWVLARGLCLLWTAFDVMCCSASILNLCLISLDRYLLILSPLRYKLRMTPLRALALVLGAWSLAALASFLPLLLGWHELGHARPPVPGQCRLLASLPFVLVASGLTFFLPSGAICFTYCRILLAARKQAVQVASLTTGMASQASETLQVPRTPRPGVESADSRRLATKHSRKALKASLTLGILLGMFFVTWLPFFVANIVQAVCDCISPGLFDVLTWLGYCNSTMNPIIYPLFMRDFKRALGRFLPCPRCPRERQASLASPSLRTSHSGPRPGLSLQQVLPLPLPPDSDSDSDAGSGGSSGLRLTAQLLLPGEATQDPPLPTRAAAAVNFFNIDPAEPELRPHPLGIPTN
Description: Determination of antagonistic activity of compounds of the general formula 1 towards 5-HT6 receptors. Compounds of the general formula 1 were tested for their ability to prevent 5-HT6 receptors activation by serotonin. HEK 293 cells (cells of human embryo's kidney) with artificially expressed 5-HT6 receptor, activation of which by serotonin leads to increasing the concentration of intracellular cAMP, were used. The level of intracellular cAMP was determined using reagent kit LANCE cAMP (PerkinElmer) according to the method described by the manufacturer of the kit [http://las.perkinelmer.com/content/Manuals/MAN_LANCEcAMP384KitUser.pdf]. Effectiveness of the compounds was estimated by their ability to reduce the level of intracellular cAMP induced by serotonin. Table 4 presents IC50 values for the compounds of general formula 1 in the setting of functional assay for serotonin 5-HT6 receptor inhibition. The data given testify their moderate or high antagonistic activity.

Mice of SHK line = assay: Prepulse inhibition of the startle response in mice (Apomorphine model); format: in vivo, mouse; details: 1 mg/kg i.p. 60 minutes before the test; FIG. 17
Description: Mice of SHK line weighing about 24-30 g were used in the test. The experiments were carried out during the light period of animal's diurnal. Apomorphine hydrochloride and Haloperidol were received from Sigma Chemicals Company, (USA). Apomorphine hydrochloride was dissolved in 0.1% solution of ascorbic acid prepared with sterilized water; it was introduced subcutaneously 15 minutes before the test. Haloperidol was dissolved in sterilized water using emulsifier Twin 80, it was introduced intraperitoneally 60 minutes before the test. Compounds 1.2.22(1), 1.2.22(18), 1.2.7(1) were dissolved in sterilized water and introduced intraperitoneally 60 minutes before the test. The injection volume was 10 ml/kg. 0.1%. Solution of ascorbic acid, prepared with sterilized water and Twin 80, was injected to control group of animals.
The test instrument consisted of a chamber made of transparent plexiglass (manufacturer—Columbia Instruments Company, USA) and placed on the platform; the latter was lodged inside the sound insulating chamber. A high frequency sound column transmitting acoustic stimuluses was located 2 cm away from the platform. […] The level of background noise made up 65 dB. Each animal received 4 stimuli of single testing (pulse) stimulus of 50 ms duration and 105 dB or prepulsory stimulus (pre-pulse) of 20 ms duration and 85 dB, after which in 30 ms pulse stimulus of 50 ms duration and 105 dB followed. Time interval between repeated pulse or prepulse in combination with pulse stimuli made up 10 s. Inhibition of the startle in reply to prepulse-plus-pulse stimulus was calculated in percentage towards amplitude of startle in response to isolated pulse stimulus.

male mice of BALB/c line [2] = assay: Tail suspension test; format: in vivo, mouse; details: i.p. during 4 days; FIG. 19
Description: 17.2. Mice behavior in tail suspension test. Tail suspension test was described by Steri et al. (1985) as a convenient method for investigation of potential antidepressants. It is supposed that forced immobility in rodents could be used as a model for investigation of depressive disorders at humans. Clinically effective antidepressants lower mice immobility which follows negative attempts to become free when their tails are fixed.
Male mice of BALB/c line weighing about 20-30 g were used in the test. The animals were suspended by tail with a sticky tape on the holder over a horizontal surface at a height of about 40 cm, and the total duration of complete immobility episodes was registered in the course of 3 minutes. […] Automated computerized detection of motion with videosystem and Any-maze program were used in the test. The tested compounds 1.2.7(1) and 1.2.22(18) were administered intraperitoneally during 4 days. Reference substances (Fluoxetine, Desipramine) were injected intraperitoneally 15 minutes before the beginning of the test.

male mice of BALB/c line [3] = assay: Porsolt's Forced Swim Test; format: in vivo, mouse; details: i.p. for 4 days subchronically; FIG. 18
Description: 17.1. Mice Behavior in Porsolt's Forced Swim Test. Expression of behavioral despair was offered to use as a model for investigation of antidepressant activity in Porsolt's test (1977, 1978). That is, the behavior of a mouse or rat in a closed basin, from which the animal can not get out, cheracterizes the level of its despair which could be reduced by means of antidepressant intake.
Male mice of BALB/c line weighing about 20-30 g were used in the test. The animals were placed for 15 minutes in the basin (of 300 mm height, 480 mm diameter) filled with water to 70% of its volume at 25° C. In 3-5 minutes swimming activity began to decrease and change by phases of movement and immobility. […] Data for the last 5 minutes of the test were taken for the analysis. Automated computerized detection of motion with videosystem and Any-maze program were used in the test. The tested compounds 1.2.7(1) and 1.2.22(18) were injected intraperitonelly for 4 days subchronically.

5-HT6 receptor [4] = biological target: T1, 5-HT6 receptor; assay: competitive radioligand binding ([3H] Lysergic acid diethylamide) to serotonin 5-HT6 receptors, HeLa cell membranes; details: read-out: IC50, competitive assay of serotonin 5-HT6 receptor inhibition; displacement of 1.5 nM [3H] Lysergic acid diethylamide, 120 min at 37° C.
Description: Determination of activity of the compounds of the general formula 1 in the setting of competitive binding to serotonin 5-HT6 receptors.
Screening of the disclosed compounds for their potential ability to interact with serotonin 5-HT6 receptors was carried out by method of radioligand binding. For this purpose membrane species were prepared from expressing recombinant human 5-HT6 receptors HeLa cells by means of their homogenization in glass homogenizer with subsequent separation of plasmatic membranes from cell nucli, mitochondria's and cell wreckages by differential centrifugation. Determination of tested compounds binding to 5-HT6 receptors was carried out according to the method described in [Monsma F J Jr, Shen Y, Ward R P, Hamblin M W and Sibley D R, Cloning and expression of a novel serotonin receptor with high affinity for tricyclic psychotropic drugs. […] After incubation the samples were filtered in vacuo on glass-microfiber filters G/F (Millipor, USA), filters were washed three times with cold solution of the medium and radioactivity was measured by scintillation counter MicroBeta 340 (PerkinElmer, USA). Nonspecific binding which made up 30% of overall binding was determined by incubation of membrane preparations with radioligand in the presence of 5 μM Serotonin (5-HT). Methiothepin was used as positive control. Binding of the tested compounds to the receptor was determined by their ability to displace the radioligand and expressed in percent of displacement. The percent of displacement was calculated according to the following equation:
[formula] wherein: TA—was overall radioactivity in the presence of radioligand only, CA—was radioactivity in the presence of radioligand and tested compound and NA—was radioactivity in the presence of radioligand and Serotonin (5 μM).

mice = assay: Passive avoidance in the shuttle chamber, amnesia caused by MK-801, mice; format: in vivo, mouse; details: MK-801 0.1 mg/kg i.p., compounds injected 30 minutes before the test, FIG. 11-13
Description: as §2
On the first day of testing 30 minutes before training the animals were injected intraperitoneally with Scopolamine which causes disturbance of training (memory loss). The animals of the trial group were additionally administered with one of the tested compounds. The animals of the control group were injected with physiological solution. Each group consisted of 8 animals. The animals were placed in the light section, and latent period of the first entry into the dark chamber was registered. Then vertical door was closed and the animal was punished by 0.6 mA DC current for 3 seconds. After that the animal was taken back to its home cage. In 22-24 hours the same animal was placed again in the light section of the shuttle chamber and latent period of its first entry into the dark section, the total time of its stay in the light section and the number of entries into the dark section were registered. Each monitoring lasted for 5 minutes.
14.2.1. Passive Avoidance of mice in the Shuttle Chamber. The test was carried out as in example 14.1.1. […]

male mice of BALB/c line [5] = assay: Passive avoidance in the shuttle chamber, Scopolamine amnesia model, mice; format: in vivo, mouse; details: compounds injected 30 minutes before the test, read 24 hours after training, FIG. 4-6
Description: as §1, §2, §3

male mice of BALB/c line [6] = assay: Mice Behavior in the Elevated Plus Maze; format: in vivo, mouse; details: tested compounds i.p.; FIG. 14-16
Description: Anxiolytic activity of compounds 1.1(11), 1.2.7(1), 1.2.6(1), 1.2.3(1), 1.2.11(1), 1.2.22(1), 1.2.22(18) in test “Mice Behavior in the Elevated Plus Maze”. The experiments were carried out in aged male mice of BALB/c line weighing about 25 g. The animals were housed 5-7 per cage with water and food available. None of the animals was acquainted with the experimental set-up before. Each experimental group included 8 animals.
The procedure used was described earlier by Lister (Lister R. G. The use of a plus-maze to measure anxiety in the mouse. Psychopharmacology, 1987; 92:180-185). Plexiglass set-up consisted of two opened arms of 30×5 cm size and two closed arms of 30×5×15 cm size. Side arms were closed with transparent plexiglass and were connected with the central zone via a platform of 5×5 cm size. The opened arms, central platform and floor were made of black plexiglass. The set-up was mounted on a metallic base which was placed 38.5 cm above the floor level.
The animals were injected intraperitoneally with placebo, Buspirone (5 mg/kg, 30 minutes before training), Lorazepam (0.05 mg/kg, 60 minutes before training) or with one of the tested compounds 1.1(11), 1.2.7(1), 1.2.6(1), 1.2.3(1), 1.2.11(1), 1.2.22(1), 1.2.22(18). Buspirone and Lorazepam were introduced in a maximal effective dose, at which side sedative effect and general decrease of exploratory activity (the number of arm entries during the test) were not observed yet.
Each mouse was placed in the maze center with its head towards the opened arm. Over a period of 5 minutes the sequence and duration of arm entries were registered by means of a computer program. Criterion for entry is a location of all animal's paws inside the arm at the same time. The index of preference was calculated as a ratio of the time spent by the animal in the opened arms as well as the number of entries into the opened arms to the total time spent by it in the opened and closed arms or, respectively, to the whole number of entries to the arms of both types. The number of defecations left by a mouse was regarded as an additional parameter characterizing the anxiety state. Being in normal state the animals usually avoid open arms (the preference index is between 0.2 and 0.3).

Structure (SMILES) | prevention of Scopolamine-disturbed novel object recognition (male mice of SHK line) | effect on amnesia caused by Scopolamine (latent period, light arm stay, dark arm entries) (male rats) | effect on amnesia caused by MK-801 (latent period, light arm stay, dark arm entries) (rats) | IC50 (5-HT6 receptor [1]) | effect on Apomorphine-disturbed prepulse inhibition of startle (Mice of SHK line) | antidepressant activity, immobility in tail suspension test (male mice of BALB/c line [2]) | antidepressant activity, immobility during the final 5 minutes in Porsolt's test (male mice of BALB/c line [3]) | IC50 (5-HT6 receptor [4]) | effect on amnesia caused by MK-801 (latent period, light arm stay, dark arm entries) (mice) | effect on amnesia caused by Scopolamine (latent period, light arm stay, dark arm entries) (male mice of BALB/c line [5]) | anxiolytic activity in the elevated plus maze (male mice of BALB/c line [6])
CNc1nn2c(C)cc(CO)nc2c1S(=O)(=O)c1ccccc1 [1.2.7(1), 5-(hydroxymethyl)-7-methyl-2-methylamino-3-phenylsulfonyl-pyrazolo[1,5-a]pyrimidine] | prevent memory impairment caused by Scopolamine | decrease amnesia | decrease amnesia caused by MK-801 | 19 nM | prevented disturbance of prepulse inhibition of startle caused by Apomorphine | antidepressant activity comparable with the activity of Fluoxetine and Desipramine | exhibits antidepressant activity | 0.88 nM |  |  | 
Cc1cc(C)n2nc([S+](C)[O-])c(S(=O)(=O)c3ccccc3)c2n1 (centres unmarked) [1(1)] |  |  |  |  |  |  |  |  | decrease amnesia caused by MK-801 | decrease amnesia | 
CSc1nn2c(C)cc(CO)nc2c1S(=O)(=O)c1ccccc1 [1.1.7(1), 5-(hydroxymethyl)-7-methyl-2-methylsulfanyl-3-phenylsulfonyl-pyrazolo[1,5-a]pyrimidine] |  |  |  | 177 nM |  |  |  |  | decrease amnesia caused by MK-801 |  | 
CNc1nn2c(C)c(N(C)C)c(C)nc2c1S(=O)(=O)c1ccccc1 [1.2.22(18)] | prevent memory impairment caused by Scopolamine | decrease amnesia | decrease amnesia caused by MK-801 |  | prevented disturbance of prepulse inhibition of startle caused by Apomorphine |  |  |  |  |  | anxiolytic activity analogous to the activity of control compounds
